This is an account of results in patent publication US20240287036A1, “COMPOUNDS USEFUL IN THE TREATMENT OR PREVENTION OF A PRMT5-MEDIATED DISORDER” (ARGONAUT THERAPEUTICS LIMITED, priority 2021, published 2024).

The term hepatocyte CLint denotes a measure of how fast metabolising enzymes remove a compound, apart from limits set by blood flow. Low readings indicate greater metabolic stability, high ones faster metabolism.

A value given as a limit tells only on which side of the number the result lay.

Data set [1] can be described thus: Hepatocyte stability assay (Human Hep Clint). Type of data set: in vitro ADME. As to conditions: cryopreserved pooled human hepatocytes, 0.5 × 10^6 cells/mL, 1 μM test compound, up to 90 min. Here is the method:
The activity of the compounds was tested using several industry accepted methods. These included methods to measure the human hepatocyte clearance values (Human Hep Clint) and a PRMT5 assay. The methods that were used were conventional.
Cell viability was tested by trypan blue exclusion after thawing.
Thawing Medium: Williams' Medium E containing 5% fetal bovine serum and 30% Percoll solution and other supplements.
Incubation Medium: Williams' Medium E (no phenol red) containing 2 mM L-Glutamine and 25 mM HEPES.
Stop Solution: Acetonitrile containing 200 ng/ml tolbutamide and labetalol as internal standards.
The following steps were performed. • 1. 10 mM test compounds were provided by Compound Sample Group. • 2. 30 mM positive control stock solutions: Dissolved accurate amount of positive control compounds in dimethyl sulfoxide (DMSO). • 3. 1000× Stock Solution: Diluted 10 mM test compounds and 30 mM positive control compounds to 1 mM and 3 mM with DMSO in 96-well plates. • 4. 100× Dosing Solution: Diluted 1 mM test compounds and 3 mM positive control compounds to 100 µM and 300 µM dosing solutions with ACN. • 5. Preparation of 0.5×10^6/mL cells suspension: cryopreserved cells were thawed, isolated and suspended in Incubation Medium, then diluted with pre-warmed Incubation Medium to 0.5×10^6 cells/mL. • 6. Add 198 μL of pre-warmed cell suspensions in 96-well plates. • 7. Preparation of Quenching Plate: Transfer 125 μL of stop solution (acetonitrile containing 200 ng/ml tolbutamide and 200 ng/ml labetalol as internal standards) in a set of pre-labelled 96-well plates. • 8. Spike 2 μL dosing solution to each well of 96-well plates in duplicates. • 9. For T0 Samples, mix to achieve a homogenous suspension for about 1 min, then immediately transfer 25 μL of each sample into well containing 125 μL of ice-cold stop solution followed by mixing. • 10. Incubate all plates at 37° ° C. in a 95% humidified incubator at 5% CO2 to start the reactions with constant shaking at about 600 rpm. • 11. At 15, 30, 60 and 90 min, mix samples and then transfer 25 μL of each sample at each time point to well containing 125 μL of ice-cold stop solution followed by mixing. • 12. Medium Control (MC) sample plates (labelled as T0-MC and T90-MC) are prepared at TO and T90 by adding the same components to each well except cell suspensions. • 13. At each corresponding time point, stop the reactions by removing the plates from incubator and mixing with 125 μL of ice-cold stop solution. • 14. Vortex the plates immediately on a plate shaker at 500 rpm for 10 minutes. Then, centrifuge all sample plates at 3220× g for 20 min at 4° C. • 15. After centrifugation, 80 μL/well of supernatant in the sample plates are transferred to another set of pre-labelled 96-well plates which containing 240 μL of ultra pure water according to the plate map. • 16. Analytical plates are sealed and store at 4° C. until LC-MS/MS analysis.
The remaining percents of test articles after incubation were calculated by the follow equations: […]
Use equation of first order kinetics to calculate t1/2 and CLint. Equation of first order kinetics:
[formula] [formula] CLint (hep)=k/million cells per mL
CLint (liver)=CLint (hep)·liver weight (g/kg body weight)*hepatocellularity

The next data set addresses T1, human PRMT5/MEP50 (Homo sapiens, UniProt O14744).
T1 construct: host or cells: HEK293 cells
Nature of the data set: PRMT5 chemiluminescent assay. Type of data set: biochemical. The note with it: human PRMT5/MEP50 expressed in HEK293 cells, biotinylated histone peptides, 60 min reaction; read-out: PRMT5 pIC50 (converted). Here is the method: A PRMT5 chemiluminescent assay was used to measure the IC50 activity of PRMT5 of the compounds of CEx and Examples 1 to 8 above. Biotinylated histone peptides were synthesized and attached to 384-well plates. Compound serial dilutions were performed and added to the assay plate. Histone H4 monomethyl R^3 antibody was obtained from Abcam. A master mix for each well was prepared and human PRMT5/MEP50 (expressed in HEK293 cells) diluted in assay buffer to a concentration of 5 ng/μL. The reaction was incubated and slowly rotated for 60 minutes at the point of PRMT5/MEP50 addition. The supernatant from the wells was removed and blocking buffer was added to each well and rotated for 10 minutes. The primary antibody was diluted and added to every well for 60 minutes, before it was removed and the wells washed. The horse radish peroxidase (HRP)-coupled secondary antibody was diluted and added to each well with an incubation time of 30 minutes. The HRP chemiluminescent substrate was added to every well. The plate was read on a Flourstar Omega BMG Labtech instrument (Ortenberg, Germany) and the analysis of IC50 was performed using the Flourstar Omega BMG Labtech software.

T1 sequence (O14744 whole entry): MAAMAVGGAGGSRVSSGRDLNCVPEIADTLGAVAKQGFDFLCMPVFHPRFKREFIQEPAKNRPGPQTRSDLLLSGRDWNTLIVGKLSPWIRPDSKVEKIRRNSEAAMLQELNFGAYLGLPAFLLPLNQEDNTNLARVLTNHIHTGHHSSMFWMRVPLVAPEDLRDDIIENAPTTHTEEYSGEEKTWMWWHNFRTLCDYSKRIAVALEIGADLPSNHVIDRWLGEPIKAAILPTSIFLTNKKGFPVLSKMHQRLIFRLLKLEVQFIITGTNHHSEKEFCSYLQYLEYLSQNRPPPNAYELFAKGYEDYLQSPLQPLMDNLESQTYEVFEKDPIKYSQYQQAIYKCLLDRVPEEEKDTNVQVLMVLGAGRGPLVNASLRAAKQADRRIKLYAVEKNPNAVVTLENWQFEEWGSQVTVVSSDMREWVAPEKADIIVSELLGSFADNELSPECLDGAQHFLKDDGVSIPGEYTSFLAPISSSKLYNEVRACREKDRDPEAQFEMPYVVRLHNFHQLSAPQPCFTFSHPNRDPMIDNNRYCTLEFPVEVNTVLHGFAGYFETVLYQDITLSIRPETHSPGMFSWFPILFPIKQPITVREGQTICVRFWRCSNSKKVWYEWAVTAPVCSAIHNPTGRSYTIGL
T1 sequence (Q9BQA1 whole entry partner): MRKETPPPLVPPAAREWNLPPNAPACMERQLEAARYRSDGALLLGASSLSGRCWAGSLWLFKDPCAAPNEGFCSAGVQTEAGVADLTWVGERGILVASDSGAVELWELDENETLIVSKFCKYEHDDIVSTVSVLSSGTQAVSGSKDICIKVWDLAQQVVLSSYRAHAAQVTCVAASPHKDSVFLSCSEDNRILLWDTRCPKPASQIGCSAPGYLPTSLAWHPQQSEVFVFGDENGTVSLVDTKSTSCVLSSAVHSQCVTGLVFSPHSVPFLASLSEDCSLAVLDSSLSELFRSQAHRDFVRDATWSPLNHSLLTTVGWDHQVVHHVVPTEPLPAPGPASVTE

Compound `O=C(NC[C@H](O)CN1CCc2ccccc2C1)N1CCC[C@@H](N2CCCCC2=O)C1` [Ex. 2, (R)—N—((S)-3-(3,4-dihydroisoquinolin-2(1H)-yl)-2-hydroxypropyl)-2-oxo-[1,3′-bipiperidine]-1′-carboxamide] gave an intrinsic metabolic clearance (hepatocyte CLint) at 1 μM in data set [1] below 3 µL/min/1e6 cells. The IC50 at human PRMT5/MEP50 was 15.8 nM.

The compound `CN1CCCN([C@@H]2CCCN(C(=O)NC[C@H](O)CN3CCc4ccccc4C3)C2)C1=O` [Ex. 8, (R)—N—((S)-3-(3,4-dihydroisoquinolin-2(1H)-yl)-2-hydroxypropyl)-3-(3-methyl-2-oxotetrahydropyrimidin-1(2H)-yl)piperidine-1-carboxamide] showed a hepatocyte CLint at 1 μM in data set [1] below 6.4 µL/min/1e6 cells. The IC50 on human PRMT5/MEP50 was 12.6 nM.

With `O=C(NC[C@H](O)CN1CCc2ccccc2C1)N1CCC[C@@H](c2ccccc2)C1` [CEx, reference compound], the intrinsic metabolic clearance (hepatocyte CLint) at 1 μM in data set [1] is 54.1 µL/min/1e6 cells. Besides, the IC50 on human PRMT5/MEP50 is 12.6 nM.

In data set [1], `Cc1ccnn([C@@H]2CCCN(C(=O)NC[C@H](O)CN3CCc4ccccc4C3)C2)c1=O` [Ex. 7, (R)—N—((S)-3-(3,4-dihydroisoquinolin-2(1H)-yl)-2-hydroxypropyl)-3-(5-methyl-6-oxopyridazin-1(6H)-yl)piperidine-1-carboxamide] had an intrinsic clearance (hepatocyte CLint) at 1 μM of 10.8 µL/min/1e6 cells. Also, the IC50 on human PRMT5/MEP50 is 7.94 nM.

As to `CC1CCCN([C@@H]2CCCN(C(=O)NC[C@H](O)CN3CCc4ccccc4C3)C2)C1=O` (stereo partly drawn) [Ex. 6, (3′R)—N—((S)-3-(3,4-dihydroisoquinolin-2(1H)-yl)-2-hydroxypropyl)-3-methyl-2-oxo-[1,3′-bipiperidine]-1′-carboxamide], the hepatocyte CLint at 1 μM in data set [1] is below 6 µL/min/1e6 cells. The IC50 at human PRMT5/MEP50 is 12.6 nM.

In the case of `O=C(NC[C@H](O)CN1CCc2ccccc2C1)N1CCC[C@@H](N2CCCC2=O)C1` [Ex. 1, (R)—N—((S)-3-(3,4-dihydroisoquinolin-2(1H)-yl)-2-hydroxypropyl)-3-(2-oxopyrrolidin-1-yl)piperidine-1-carboxamide], the hepatocyte CLint at 1 μM in data set [1] was determined as 1.7 µL/min/1e6 cells. Moreover, the IC50 at human PRMT5/MEP50 is 50.1 nM.

Take `[2H]C1([2H])CN(C[C@@H](O)CNC(=O)N2CCC[C@@H](N3CCCCC3=O)C2)C([2H])([2H])c2ccccc21` [Ex. 5, (R)—N—((S)-3-(3,4-dihydroisoquinolin-2(1H)-yl-1,1,4,4-d4)-2-hydroxypropyl)-2-oxo-[1,3′-bipiperidine]-1′-carboxamide]: the IC50 at human PRMT5/MEP50 was 20 nM.

On to `[2H]C1([2H])c2ccccc2CCN1C[C@@H](O)CNC(=O)N1CCC[C@@H](N2CCCCC2=O)C1` [Ex. 4, (R)—N—((S)-3-(3,4-dihydroisoquinolin-2(1H)-yl-1,1-d2)-2-hydroxypropyl)-2-oxo-[1,3′-bipiperidine]-1′-carboxamide], for which the hepatocyte CLint at 1 μM in data set [1] came to 2.5 µL/min/1e6 cells. In addition, the IC50 on human PRMT5/MEP50 was 31.6 nM.

On to `CC1CCC(=O)N([C@@H]2CCCN(C(=O)NC[C@H](O)CN3CCc4ccccc4C3)C2)C1` (stereo partly drawn) [Ex. 3, (3′R)—N—((S)-3-(3,4-dihydroisoquinolin-2(1H)-yl)-2-hydroxypropyl)-5-methyl-2-oxo-[1,3′-bipiperidine]-1′-carboxamide], for which, in data set [1], the hepatocyte CLint at 1 μM stood at 2.5 µL/min/1e6 cells. At human PRMT5/MEP50, the IC50 was 31.6 nM.
